Reference: article PMC12040169 (PLOS Biology, 2025)

Columns and labels:
[1] = in vitro; details: human, hela cells, % viability
[2] = test system: T1, C. trachomatis L2/434/Bu expressing GFP (CTL2-GFP); assay: microbe, parasite or virus in culture; set-up: C. trachomatis total inclusion area by high-content imaging, normalised to DMSO; details: Chlamydia trachomatis, HeLa, 28.5 h; total inclusion area; read-out: % of control remaining
T1 construct: L2/434/Bu GFP intracellular growth in HeLa cells
Summary of the method: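 A 36,785-compound library was screened using bulk GFP and resorufin fluorescence, followed by Hoechst staining and high-content imaging of inclusions (GFP) and host nuclei. Inclusion area and number served as growth proxies and nuclei counts as a viability proxy. MICs were calculated from these readouts.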

[3] = test system: T2, CTL2-GFP (C. trachomatis L2/434/Bu, GFP-expressing); assay: microbe, parasite or virus in culture; set-up: Intracellular C. trachomatis growth in HeLa cells, bulk GFP fluorescence relative to DMSO; details: Chlamydia trachomatis, HeLa, 28.5 h; bulk GFP, mean of 2; read-out: % of control remaining
T2 construct: L2/434/Bu, GFP-expressing
Procedure: MICs were calculated as described above.

[4] = in vitro; set-up: Viability of infected HeLa host cells, resazurin conversion, bulk resorufin fluorescence relative to DMSO; details: human, hela cells; bulk resorufin, mean of 2

Compound | viability at 28.5 h, 10 µM [1] [%] | activity at 1 µM [2] [%] | activity at 5 µM [2] [%] | activity at 10 µM [2] [%] | activity at 1 µM [3] [%] | activity at 5 µM [3] [%] | activity at 10 µM [3] [%] | viability at 28.5 h, 1 µM [4] [%] | viability at 28.5 h, 5 µM [4] [%] | viability at 28.5 h, 10 µM [4] [%]
Clc1ccc2nc(-c3ccccn3)[nH]c2c1 [CBK000116] | 83.8 | 70.7 | 9.19 | 1.69 | 75 | 13.8 | 1.74 | 111 | 104 | 104
Nc1cccc2c(OCCO)cccc12 [CBK001976C] | 91.8 | 82.7 | 72.9 | 30.7 | 92.4 | 76.5 | 45.6 | 92.9 | 89 | 85.7
CC(NC(=O)N(Cc1ccccc1C(F)(F)F)CC(C)(C)CN)c1cccc2ccccc12 (centres unmarked) [CBK002422C] | 91.9 | 78.4 | 41 | 12.2 | 112 | 51.5 | 34.5 | 90.1 | 94.1 | 101
Cc1ccc(NC(=O)N(Cc2ccc(-c3ccccc3)cc2)CC(C)(C)CN)c(C)c1 [CBK002428C] | 94.9 | 115 | 68.5 | 10.7 | 126 | 87.3 | 46.1 | 90.2 | 88.8 | 86.4
Cc1ccc(NC(=O)n2ccc3c(N4CCNCC4)cccc32)cc1[N+](=O)[O-] [CBK003747C] | 81.4 | 75.6 | 59.3 | 30.3 | 105 | 78.4 | 44.4 | 89.8 | 85.5 | 76.7
CC(N)C(=O)NC1CCN(c2nc3c(cc2F)c(=O)c(C(=O)O)cn3C23CC(C2)C3)C1 (centres unmarked) [CBK016632] | 80.5 | 11.5 | 1.17 | 0.494 | 15.3 | 3.24 | 7.52 | 90.2 | 89.5 | 87
O=C(NCCNCCNC(=O)C1(c2ccccc2)CCCC1)C1(c2ccccc2)CCCC1 [CBK017670] | 110 | 107 | 54.1 | 8.64 | 123 | 49.1 | 13.5 | 91.6 | 93.5 | 89.5
CC(=O)NC[C@H]1CN(c2ccc3c(c2)CCSC3)C(=O)O1 [CBK018505] | 99 | 129 | 28.5 | 9.34 | 142 | 29.2 | 12.6 | 95.5 | 101 | 101
COC(=O)N1CCc2ccc(N3C[C@H](CNC(C)=O)OC3=O)cc2CC1 [CBK022485] | 79.8 | 128 | 35.2 | 7.61 | 136 | 44.2 | 12.6 | 88.3 | 85.8 | 90.5
Cc1cccc(-c2ccc(CC3(C(N)=O)CCN(C(=O)CCc4ccccc4)CC3)cc2)c1 [CBK285796] |  | 113 | 4.18 | 1.3 | 133 | 4.53 | 4.56 | 91.6 | 96.9 | 106
Cc1ccc2[nH]c(-c3cccc(NC(=O)c4cccc(CN5CCCC5=O)c4)c3)nc2c1 [CBK285838] |  | 125 | 91.8 | 48.2 | 137 | 94.9 | 34.2 | 93 | 83.3 | 87.6
O=C(CC1CCN(CCc2ccccc2)CC1)Nc1cccc(-n2cccn2)c1 [CBK285951] |  | 13.7 | 0.475 | 0.166 | 11.3 | 5.45 | 1.48 | 91.7 | 87.4 | 88.6
CCc1cc(-c2n[nH]cc2-c2nc(C)cs2)c(O)cc1OC [CBK287934] |  | 87.9 | 31.5 | 6.53 | 133 | 62.2 | 7.47 | 101 | 96.8 | 94.8
CNC(=S)N1CCN(c2nsc3ccccc23)CC1 [CBK288515] |  | 0.93 | 0.381 | 0.417 | 4.18 | 3.58 | 5.68 | 98.8 | 96.2 | 101
O=C(O)c1cn(C2CC2)c2cc(N3CCN(C(=O)C4CCCO4)CC3)c(F)cc2c1=O (centres unmarked) [CBK297139] |  | 46.9 | 12.4 | 6.62 | 96.1 | 15.3 | 0.67 | 97 | 94.9 | 114
COCCCNS(=O)(=O)c1ccc(-n2ncc(Cl)c(Cl)c2=O)cc1 [CBK305039] |  | 73.2 | 2.13 |  | 78.8 | 24.5 | 21.2 | 97.7 | 32.2 | 0
Cc1ccccc1Nc1nc(N)nc(CN2CCCC(C(F)(F)F)C2)n1 (centres unmarked) [CBK305073] |  | 144 | 60.7 | 97.8 | 153 | 120 | 139 | 96.6 | 101 | 97.7
O=C(NCCCn1ccnc1)N1CCN(Cc2ccc(Cl)cc2)CC1 [CBK305894] |  | 118 | 87 | 78.9 | 143 | 148 | 147 | 90.1 | 93.5 | 89.5
O=C(NS(=O)(=O)c1cccc(-c2nnco2)c1)C1CC1C1CCCCC1 (centres unmarked) [CBK305924] |  | 120 | 151 | 119 | 129 | 146 | 143 | 91 | 99.4 | 94.7
